From EPA's CvTdb concentration-time database

Experiments:
rat [1] = test: concentration in expired air after dosing; conditions: dosed: trichloroethylene, male
rat [2] = test: concentration in blood after dosing; negative times count back from the end of exposure; conditions: dosed: trichloroethylene, 50 ppm, inhalation, duration: 4 hr, male, Sprague Dawley

ClC=C(Cl)Cl [trichloroethylene]
concentration in expired air [ng/mL], rat [1], inhalation, duration: 2 hr, Sprague Dawley
Conditions	50 ppm	500 ppm
0.1579 h	–	1570
0.1611 h	155	–
0.242 h	178	–
0.2441 h	–	1630
0.3273 h	–	1620
0.3301 h	176	–
0.4933 h	177	1730
0.6596 h	–	1730
0.6597 h	179	–
0.8258 h	–	1800
0.8264 h	173	–
0.9952 h	–	1830
0.9958 h	179	–
1.165 h	188	1850
1.328 h	–	1740
1.332 h	184	–
1.497 h	–	1840
1.498 h	193	–
1.661 h	185	–
1.664 h	–	1820
1.825 h	183	–
1.83 h	–	1910
1.991 h	178	–
2 h	–	1790
2.008 h	61.8	–
2.016 h	–	704
2.04 h	35.4	–
2.049 h	–	532
2.071 h	30.5	–
2.081 h	–	458
2.103 h	8.92	–
2.113 h	–	399
2.157 h	17.3	–
2.161 h	–	379
2.238 h	13.8	–
2.248 h	–	359
2.493 h	10.2	–
2.501 h	–	221
2.741 h	7.87	–
2.754 h	–	152
2.992 h	7.93	–
3 h	–	97.3
3.244 h	5.59	–
3.25 h	–	82
3.495 h	2.05	–
3.502 h	–	52.1
3.746 h	0.904	22.1
3.994 h	2.17	–
3.998 h	–	26.5
4.494 h	1.08	–
4.501 h	–	25.5
4.996 h	1.2	–
5 h	–	14.7
40 s	129	–
42 s	–	1270
151 s	148	–
167 s	–	1440
285 s	161	–
293 s	–	1500

rat [1], 6 mg/kg, oral, Wistar
Conditions	concentration in expired air [ppm]
0.1223 h	4.6
0.1642 h	3.99
0.219 h	3.8
0.2464 h	2.7
0.4982 h	1.12
0.7463 h	0.349
1 h	0.198
1.245 h	0.161
1.496 h	0.113
1.748 h	0.0858
2 h	0.0858
99 s	0.987
289 s	3.59

rat [2]
Conditions	concentration in blood [ng/mL]
0.2317 h	2420
0.4119 h	1510
0.9932 h	820
1.803 h	370
3.975 h	289

rat [2], during exposure
Conditions	concentration in blood [ng/mL]
-6 s	2790
-3.423 h	1890
-3.024 h	1360
-1.999 h	2680
-1.012 h	2670
